Measured values taken from US8314253B2, “Bridged tetrahydronaphthalene derivatives” (Actelion Pharmaceuticals Ltd., priority 2008, dated 2012).

Columns and labels:
[1] = tested on: human Cav3.1 Cav3.2 or Cav3.3 channel; experiment: In vitro assay T channel (FLIPR, Ca2+-induced fluorescence); format: cell-based; settings: HEK293 cells expressing human Cav3.1 Cav3.2 or Cav3.3; 10 mM Ca2+; determined up to 10 μM; read-out: T channel antagonistic activity IC50
Procedure: Human embryonic kidney (HEK293) cells expressing the human Cav3.1 Cav3.2 or Cav3.3 channel, respectively, are grown in culture medium (DMEM containing 10% heat-inactivated fetal calf serum (FCS), 100 U/ml penicillin, 100 μg/ml streptomycin and 1 mg/ml G418). The cells are seeded at 20.000 cells/well into 384-well black clear bottom sterile plates (poly-L-lysine-coated, Becton Dickinson). The seeded plates are incubated overnight at 37° C. in 5% CO2. The Ca^2+ solution is prepared as 100 mM stock solution in 100 mM tetraethylammoniumchloride (TEA-chloride), 50 mM HEPES, 2.5 mM CaCl2, 5 mM KCl, 1 mM MgCl2, adjusted to pH 7.2 with TEA-hydroxide, for use in the assay at a final concentration of 10 mM. […] Fluorescence is measured for each well at 2 second intervals for 8 minutes, and the area under the curve of each fluorescence peak is compared to the area of the fluorescence peak induced by 10 mM Ca^2+ with vehicle in place of antagonist.

[2] = tested on: isolated mouse hearts; experiment: Effect on isolated hearts according to the Langendorff method (Lgdff)
Procedure: The compounds were tested for their potential to reduce blood pressure and their effect on the contractility of the heart muscle. EC50 values on isolated mouse hearts were determined according to Literature (Doring H J., The isolated perfused heart according to Langendorff technique—function—application, Physiol. Bohemoslov. 1990, 39(6), 481-504; Kligfield P, Homer H, Brachfeld N., A model of graded ischemia in the isolated perfused rat heart, J. Appl. Physiol. 1976 June, 40(6), 1004-8).
15 example compounds have been measured using the procedure described above for the Langendorff experiment.

Row | IC50 [1] [nM] | EC50 [2] [nM] | Compound
1 | 2070 | 42 | CC(C)C(=O)O[C@@]1(CCN(C)CCCc2nc3ccccc3[nH]2)C[C@H]2CC[C@@H]1c1ccccc12 (relative stereo) [Example 1B, rac-Isobutyric acid (1R*,8R*,9R*)-9-(2-{[3-(1H-benzoimidazol-2-yl)-propyl]-methyl-amino}-ethyl)-tricyclo[6.2.2.0^2,7]dodeca-2,4,6-trien-9-yl ester]
2 | 1400 | 30 | CC(C)C(=O)O[C@@]1(CCN(C)CCCc2nc3ccccc3[nH]2)C[C@H]2CC[C@@H]1c1cc(F)c(F)cc12 (relative stereo) [Example 9A, rac-Isobutyric acid (1R*,8R*,9R*)-9-(2-{[3-(1H-benzoimidazol-2-yl)-propyl]-methyl-amino}-ethyl)-4,5-difluoro-tricyclo[6.2.2.0^2,7]dodeca-2,4,6-trien-9-yl ester]
3 | 1790 |  | CC(C)C(=O)OC1(CCN(C)CCCc2nc3ccccc3[nH]2)CC2CCC1c1ccccc12 [Example 2A, Isobutyric acid (1S,8S,9S)-9-(2-{[3-(1H-benzoimidazol-2-yl)-propyl]-methyl-amino}-ethyl)-tricyclo[6.2.2.0^2,7]dodeca-2,4,6-trien-9-yl ester or isobutyric acid (1R,8R,9R)-9-(2-{[3-(1H-benzoimidazol-2-yl)-propyl]-methyl-amino}-ethyl)-tricyclo[6.2.2.0^2,7]dodeca-2,4,6-trien-9-yl ester]
4 | 1050 | 22 | CC(C)C(=O)OC1(CCN(C)CCCc2nc3ccccc3[nH]2)CC2CCCC1c1ccccc12 [Example 11A, Isobutyric acid (1S,8S,12S)-12-(2-{[3-(1H-Benzoimidazol-2-yl)-propyl]-methyl-amino}-ethyl)-tricyclo[6.3.2.0^2,7]trideca-2,4,6-trien-12-yl ester or isobutyric acid (1R,8R,12R)-12-(2-{[3-(1H-benzoimidazol-2-yl)-propyl]-methyl-amino}-ethyl)-tricyclo[6.3.2.0^2,7]trideca-2,4,6-trien-12-yl ester]
5 | 783 |  | CC(C)C(=O)OC1(CCN(C)CCCc2nc3ccccc3[nH]2)CC2CCCC1c1ccccc12 [Example 12A, Isobutyric acid (1S,8S,12S)-12-(2-{[3-(1H-Benzoimidazol-2-yl)-propyl]-methyl-amino}-ethyl)-tricyclo[6.3.2.0^2,7]trideca-2,4,6-trien-12-yl ester or isobutyric acid (1R,8R,12R)-12-(2-{[3-(1H-benzoimidazol-2-yl)-propyl]-methyl-amino}-ethyl)-tricyclo[6.3.2.0^2,7]trideca-2,4,6-trien-12-yl ester]
6 | 544 |  | COc1cccc2[nH]c(CCCN(C)CCC3(OC(=O)C(C)C)CC4CCCC3c3ccccc34)nc12 [Example 13A, Isobutyric acid (1S,8S,12S)-12-(2-{[3-(4-Methoxy-1H-benzoimidazol-2-yl)-propyl]-methyl-amino}-ethyl)-tricyclo[6.3.2.0^2,7]trideca-2,4,6-trien-12-yl ester or isobutyric acid (1R,8R,12R)-12-(2-{[3-(4-methoxy-1H-benzoimidazol-2-yl)-propyl]-methyl-amino}-ethyl)-tricyclo[6.3.2.0^2,7]trideca-2,4,6-trien-12-yl ester]
7 | 653 | 6 | COc1cccc2[nH]c(CCCN(C)CC[C@@]3(OC(=O)CC(F)(F)F)C[C@@H]4CCC[C@H]3c3ccccc34)nc12 [Example 13B, 3,3,3-Trifluoro-propionic acid (1S,8S,12S)-12-(2-{[3-(4-methoxy-1H-benzoimidazol-2-yl)-propyl]-methyl-amino}-ethyl)-tricyclo[6.3.2.02,7]trideca-2,4,6-trien-12-yl ester or 3,3,3-trifluoro-propionic acid (1R,8R,12R)-12-(2-{[3-(4-methoxy-1H-benzoimidazol-2-yl)-propyl]-methyl-amino}-ethyl)-tricyclo[6.3.2.02,7]trideca-2,4,6-trien-12-yl ester]
8 | 191 |  | COc1ccc(C)c2[nH]c(CCCN(C)CCC3(OC(=O)C(C)C)CC4CCCC3c3ccccc34)nc12 [Example 14A, Isobutyric acid (1S,8S,12S)-12-(2-{[3-(4-Methoxy-7-methyl-1H-benzoimidazol-2-yl)-propyl]-methyl-amino}-ethyl)-tricyclo[6.3.2.0^2,7]trideca-2,4,6-trien-12-yl ester or isobutyric acid (1R,8R,12R)-12-(2-{[3-(4-methoxy-7-methyl-1H-benzoimidazol-2-yl)-propyl]-methyl-amino}-ethyl)-tricyclo[6.3.2.0^2,7]trideca-2,4,6-trien-12-yl ester]
9 | 514 |  | COc1ccc(C)c2[nH]c(CCCN(C)CC[C@@]3(OC(=O)CC(F)(F)F)C[C@@H]4CCC[C@H]3c3ccccc34)nc12 [Example 14B, 3,3,3-Trifluoro-propionic acid (1S,8S,12S)-12-(2-{[3-(4-methoxy-7-methyl-1H-benzoimidazol-2-yl)-propyl]-methyl-amino}-ethyl)-tricyclo[6.3.2.0^2,7]trideca-2,4,6-trien-12-yl ester or 3,3,3-trifluoro-propionic acid (1R,8R,12R)-12-(2-{[3-(4-methoxy-7-methyl-1H-benzoimidazol-2-yl)-propyl]-methyl-amino}-ethyl)-tricyclo[6.3.2.0^2,7]trideca-2,4,6-trien-12-yl ester]
